This note sets out measurements from ChEMBL document CHEMBL6127066, “Pegylation enhances the anti-osteoporosis activity of acacetin in both ovariectomized and LPS-stimulated mice” (Bioorg Med Chem, 2024).

Calls of active or inactive are those of the source. The rule behind the calls is not given here.

A short description of series [1]: Cytotoxicity against mouse BMDM cells at <20 uM measured after 48 to 96 hrs by CCK-8 method. In kind it is toxicity, cell-based. The following applies: time 48-96 hrs.
Series [2] deals with BMDM. Kind of series: Anti-osteoclastogenesis activity in RANKL-induced mouse BMDM cells assessed as reduction in TRAP-positive area at 10 uM measured after 4 days by TRAP staining based analysis. The following applies: time 4.0 day. The series is classed as functional, cell-based.
Series [3] concerns BMDM. Kind of series: Anti-osteoclastogenesis activity in RANKL-induced mouse BMDM cells assessed as reduction in number of TRAP-positive cells at 10 uM measured after 4 days by TRAP staining based analysis. As to conditions: time 4.0 day. The series is classed as functional, cell-based.
Series [4] has as its system BMDM. Nature of the series: Anti-osteoclastogenesis activity in RANKL-induced mouse BMDM cells assessed as downregulation of Acp mRNA expression at 10 uM measured after 4 days by RT-PCR analysis. The series is classed as functional, cell-based. The following applies: time 4.0 day.
In series [5] the test system is BMDM. Nature of the series: Anti-osteoclastogenesis activity in RANKL-induced mouse BMDM cells assessed as downregulation of Fos mRNA expression at 10 uM measured after 4 days by RT-PCR analysis. The series is classed as functional, cell-based. As to conditions: time 4.0 day.
For series [6], the system named is BMDM. Kind of series: Anti-osteoclastogenesis activity in RANKL-induced mouse BMDM cells assessed as downregulation of Ctsk-mRNA expression at 10 uM measured after 4 days by RT-PCR analysis. The series is classed as functional, cell-based. As to conditions: time 4.0 day.
The test system of series [7] is BMDM. Kind of series: Anti-osteoclastogenesis activity in RANKL-induced mouse BMDM cells assessed as downregulation of TRAP mRNA expression at 10 uM measured after 4 days by RT-PCR analysis. In kind it is functional, cell-based. The following applies: time 4.0 day.
The nature of series [8]: Drug uptake in male C57BL/6J mouse serum assessed as increase in acacetin level at 50 mg/kg, ip measured after 10 mins. In kind it is ADME, organism-based. The following applies: in vivo.
The test system of series [9] is Mus musculus. Nature of the series: Anti-osteoporosis activity LPS induced male C57BL/6J mouse model assessed as increase in BMD in femur at 5 mg/kg measured every 2 days for 12 day by Micro-CT 3D scanning method. The series is classed as functional, organism-based.
Series [10] deals with Mus musculus. Nature of the series: Anti-osteoporosis activity LPS induced male C57BL/6J mouse model assessed as increase in trabecular bone volume fraction in femur at 5 mg/kg measured every 2 days for 12 day by Micro-CT 3D scanning method. The series is classed as functional, organism-based.
Series [11] has as its system Mus musculus. Nature of the series: Anti-osteoporosis activity LPS induced male C57BL/6J mouse model assessed as increase in trabecular thickness in femur at 5 mg/kg measured every 2 days for 12 day by Micro-CT 3D scanning method. In kind it is functional, organism-based.
For series [12], the system named is Mus musculus. Kind of series: Anti-osteoporosis activity LPS induced male C57BL/6J mouse model assessed as increase in trabecular number in femur at 5 mg/kg measured every 2 days for 12 day by Micro-CT 3D scanning method. In kind it is functional, organism-based.
The species named for series [13] is Mus musculus. Nature of the series: Anti-osteoporosis activity LPS induced male C57BL/6J mouse model assessed as increase in density of cancellous bone trabeculae in femur by H and E staining based analysis. In kind it is functional, organism-based.
The species named for series [14] is Mus musculus. Kind of series: Anti-osteoporosis activity LPS induced male C57BL/6J mouse model assessed as attenuation of number of osteoclast per unit of trabecular bone area by TRAP staining based analysis. In kind it is functional, organism-based.
The test system of series [15] is Mus musculus. Nature of the series: Anti-osteoporosis activity in OVX-induced […] C57BL/6J mouse model assessed as improvement in BMD in femur at 5 mg/kg measured every three days for 7 weeks by Micro-CT 3D scanning analysis. The series is classed as functional, organism-based.
Series [16] deals with Mus musculus. Nature of the series: Anti-osteoporosis activity in OVX-induced […] C57BL/6J mouse model assessed as improvement in trabecular bone volume fraction in femur at 5 mg/kg measured every three days for 7 weeks by Micro-CT 3D scanning analysis. The series is classed as functional, organism-based.
Series [17] has as its system Mus musculus. Nature of the series: Anti-osteoporosis activity in OVX-induced […] C57BL/6J mouse model assessed as improvement in trabecular thickness in femur at 5 mg/kg measured every three days for 7 weeks by Micro-CT 3D scanning analysis. In kind it is functional, organism-based.
Series [18] deals with Mus musculus. Kind of series: Anti-osteoporosis activity in OVX-induced […] C57BL/6J mouse model assessed as improvement in trabecular number in femur at 5 mg/kg measured every three days for 7 weeks by Micro-CT 3D scanning analysis. The series is classed as functional, organism-based.
Series [19] is filed under the species Mus musculus. Kind of series: Anti-osteoporosis activity OVX-induced […] C57BL/6J mouse model assessed as reduction of trabecular bone in femur by H and E staining based analysis. In kind it is functional, organism-based.
The species entered for series [20] is Mus musculus. Kind of series: Anti-osteoporosis activity OVX-induced […] C57BL/6J mouse model assessed as attenuation of number of osteoclast by TRAP staining based analysis. In kind it is functional, organism-based.
The subject of series [21] is RAW264.7. Nature of the series: Antiinflammatory activity in LPS-induced mouse RAW264.7 cells assessed as inhibition of Il6 mRNA expression at 10 uM preincubated for 3 hrs followed by LPS stimulation and measured after 6 hrs by RT-PCR analysis. The series is classed as functional, cell-based. The following applies: time 9.0 hrs.
The subject of series [22] is RAW264.7. Kind of series: Antiinflammatory activity in LPS-induced mouse RAW264.7 cells assessed as inhibition of Tnf mRNA expression at 10 uM preincubated for 3 hrs followed by LPS stimulation and measured after 6 hrs by RT-PCR analysis. In kind it is functional, cell-based. The following applies: time 9.0 hrs.
Series [23] in a line: Drug uptake in male C57BL/6J mouse serum assessed as increase in acacetin level at 93.6 mg/kg, ip measured after 10 mins. In kind it is ADME, organism-based. As to conditions: in vivo.
Series [24] concerns Mus musculus. Nature of the series: Anti-osteoporosis activity LPS induced male C57BL/6J mouse model assessed as increase in trabecular bone volume fraction in femur at 9.36 mg/kg measured every 2 days for 12 day by Micro-CT 3D scanning method. The series is classed as functional, organism-based.
Series [25] relates to Mus musculus. Kind of series: Anti-osteoporosis activity LPS induced male C57BL/6J mouse model assessed as increase in trabecular number in femur at 9.36 mg/kg measured every 2 days for 12 day by Micro-CT 3D scanning method. The series is classed as functional, organism-based.
The species named for series [26] is Mus musculus. Nature of the series: Anti-osteoporosis activity LPS induced male C57BL/6J mouse model assessed as reduction of CTX-I level by ELISA method. In kind it is functional, organism-based.
Series [27] deals with Mus musculus. Kind of series: Anti-osteoporosis activity in OVX-induced […] C57BL/6J mouse model assessed as improvement in BMD in femur at 9.36 mg/kg measured every three days for 7 weeks by Micro-CT 3D scanning analysis. In kind it is functional, organism-based.
Series [28] has as its system Mus musculus. Nature of the series: Anti-osteoporosis activity in OVX-induced […] C57BL/6J mouse model assessed as improvement in trabecular bone volume fraction in femur at 9.36 mg/kg measured every three days for 7 weeks by Micro-CT 3D scanning analysis. The series is classed as functional, organism-based.
The subject of series [29] is Mus musculus. Kind of series: Anti-osteoporosis activity in OVX-induced […] C57BL/6J mouse model assessed as improvement in trabecular thickness in femur at 9.36 mg/kg measured every three days for 7 weeks by Micro-CT 3D scanning analysis. In kind it is functional, organism-based.
Series [30] deals with Mus musculus. Nature of the series: Anti-osteoporosis activity in OVX-induced […] C57BL/6J mouse model assessed as improvement in trabecular number in femur at 9.36 mg/kg measured every three days for 7 weeks by Micro-CT 3D scanning analysis. The series is classed as functional, organism-based.
The species named for series [31] is Mus musculus. Kind of series: Anti-osteoporosis activity OVX-induced […] C57BL/6J mouse model assessed as reduction of CTX-I level by ELISA method. In kind it is functional, organism-based.

For `COc1ccc(-c2cc(=O)c3c(O)cc(O)cc3o2)cc1` [ACACETIN], the Activity result in series [1] was “Non-Toxic”. Also, the result in series [2], in [3], in series [4], in series [5], in [6] and in [7] was Active. For the same compound, the result in series [9], in [10], in series [11], in series [12], in series [13] and in [14] was Active. Moreover, the result in series [15], in series [16], in series [17], in series [18], in [19] and in [20] was Active. In addition, the Drug uptake in [8] was found to be 489.59 ng/mL.

Turning to `COCCOCCOCCOCCOCC(=O)Oc1cc(O)c2c(=O)cc(-c3ccc(OC)cc3)oc2c1`, the result in series [21], in [22], in series [2], in [3], in series [4] and in [5] was Active. Moreover, the outcome in series [6], in series [7], in series [24], in series [25], in [13] and in series [14] was Active. The outcome in series [26], in series [27], in [28], in [29], in [30] and in series [19] was Active. In addition, the outcome in series [20] and in [31] was Active. The Activity result in [1] is “Non-Toxic”. The Drug uptake in series [23] is 3528.82 ng/mL.
